The values that follow are results of earlier work, collected in patent US7645795B2, “Method for treating amyotrophic lateral sclerosis” (BodyBio, Inc, priority 2004, dated 2010).

In the series the test system is ALS patients.

As to `Nc1nc2ccc(OC(F)(F)F)cc2s1` [riluzole], the “Extension of lifespan of ALS patients” value is reported as “approximately 3 months” and the Hepatic effect entry is given as “evokes hepatic stress upon elevation of liver enzymes”.
